Reference: patent US9212138B2, “Use of derivatives of indoles for the treatment of cancer” (CENTRE NATIONAL DE LA RECHERCHE SCIENTIFIQUE, priority 2009, dated 2015)

The compounds below were run against T1, MKLP-2 (RabK6) (Homo sapiens, UniProt O95235, S2A) (assay: biochemical). Details: not given.
T1 construct: Expression clones for MKLP-21-519 (coding for residues 1 to 519) were obtained as follows; His-tag; made in house; host or cells: E. coli BL21(DE3)
T1 sequence (O95235 1-519 S2A limits assumed): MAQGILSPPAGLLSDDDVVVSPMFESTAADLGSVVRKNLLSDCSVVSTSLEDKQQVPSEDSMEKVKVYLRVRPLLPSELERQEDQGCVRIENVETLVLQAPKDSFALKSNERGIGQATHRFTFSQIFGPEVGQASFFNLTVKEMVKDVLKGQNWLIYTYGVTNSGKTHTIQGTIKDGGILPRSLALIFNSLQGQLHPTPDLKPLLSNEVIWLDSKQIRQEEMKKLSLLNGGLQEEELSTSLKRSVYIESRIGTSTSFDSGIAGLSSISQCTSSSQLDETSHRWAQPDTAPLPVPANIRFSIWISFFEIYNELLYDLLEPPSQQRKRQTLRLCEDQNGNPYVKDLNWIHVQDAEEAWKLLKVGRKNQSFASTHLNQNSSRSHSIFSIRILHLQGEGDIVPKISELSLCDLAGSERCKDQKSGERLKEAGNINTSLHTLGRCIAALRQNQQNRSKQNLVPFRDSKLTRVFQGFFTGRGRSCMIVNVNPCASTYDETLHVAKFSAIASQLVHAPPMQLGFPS
Experimental: All experiments were performed at room temperature using a 96-well Sunrise photometer (Tecan, Maennedorf, Switzerland) at a final volume of 100 μl per well.
Steady-state ATPase rates were measured using the pyruvate kinase/lactate dehydrogenase-linked assay in buffer A25A (25 mM potassium ACES, pH 6.9, 2 mM MgAc2, 2 mM Na-EGTA, 0.1 mM Na-EDTA, 1 mM β-mercaptoethanol) supplemented with 1 mM MgATP; 2 mM PEP; 0.25 mM NADH; 3-10 μg/ml pyruvate kinase; 3 μg/ml lactate dehydrogenase and 8 μM taxol.
The data were analyzed using Kaleidagraph 3.0 (Synergy Software, Reading, Pa.) and Microsoft Excel to obtain the kinetic variables.
When necessary, the inhibitor concentrations were adapted depending on the initial IC50 value. Experiments were performed in triplicate and averaged data points are shown with error bars±SD.
For COc1ccc2[nH]cc(C(C)=Cc3cccnc3)c2c1 (racemic) [Example 59, 5-methoxy-3-(1-(pyridin-3-yl)prop-1-en-2-yl)-1H-indole], the IC50 was < 5 µM.
With N#C/C(=C\c1cccnc1)c1c[nH]c2ccc(F)cc12 [Example 25, (Z)-2-(5-fluoro-1H-indol-3-yl)-3-pyridin-3-yl-acrylonitrile] the IC50 was < 5 µM.
COc1ccc2c(/C(C#N)=C/c3cccnc3)c[nH]c2c1 [Example 26, (Z)-2-(6-methoxy-1H-indol-3-yl)-3-pyridin-3-yl-acrylonitrile] was tested, and the IC50 was 5 to 10 µM.
COc1cccc2[nH]cc(/C(C#N)=C/c3cccnc3)c12 [Example 27, (Z)-2-(4-methoxy-1H-indol-3-yl)-3-pyridin-3-yl-acrylonitrile] gave an IC50 of 10 to 20 µM.
With COc1ccc2[nH]cc(/C(C#N)=C/c3ccc(F)nc3)c2c1 [Example 28, (Z)-3-(6-fluoropyridin-3-yl)-2-(5-methoxy-1H-indol-3-yl)-acrylonitrile] the IC50 was < 5 µM.
In the case of N#C/C(=C\c1cccnc1)c1c[nH]c2ccc(O)cc12 [Example 29, (Z)-2-(5-hydroxy-1H-indol-3-yl)-3-pyridin-3-yl-acrylonitrile], the IC50 is reported as < 5 µM.
COc1ccc2[nH]cc(/C(C#N)=C/c3cccc(C#N)c3)c2c1 [Example 30, (Z)-3-[2-cyano-2-(5-methoxy-1H-indol-3-yl)-vinyl]-benzonitrile] was tested, and the IC50 was < 5 µM.
With COc1ccc2[nH]cc(/C(C#N)=C/c3cnccc3C)c2c1 [Example 31, (Z)-2-(5-methoxy-1H-indol-3-yl)-3-(4-methyl-pyridin-3-yl)-acrylonitrile] the IC50 was < 5 µM.
For COc1ccc2[nH]cc(/C(C#N)=C/c3cccc(C(N)=O)c3)c2c1 [Example 32, (Z)-3-[2-cyano-2-(5-methoxy-1H-indol-3-yl)-vinyl]-benzamide], the IC50 was 10 to 20 µM.
For COc1ccc2[nH]cc(/C(C#N)=C/c3ccc[n+](C)c3)c2c1 [Example 33, (Z)-3-[2-cyano-2-(5-methoxy-1H-indol-3-yl)-vinyl]-1-methylpyridinium iodide], the IC50 was 10 to 20 µM.
In the case of CCCc1nc2c(ccc3[nH]cc(/C(C#N)=C/c4cccnc4)c32)o1 [Example 34, (Z)-2-(2-propyl-6H-oxazolo[4,5-e]indol-8-yl)-3-(pyridin-3-yl)acrylonitrile], the IC50 is reported as > 50 µM.
Compound COc1cc(-c2ccc3[nH]cc(/C(C#N)=C/c4cccnc4)c3c2)cc(OC)c1OC [Example 38, (Z)-3-(pyridin-3-yl)-2-(5-(3,4,5-trimethoxyphenyl)-1H-indol-3-yl)-acrylonitrile] has an IC50 of 5 to 10 µM.
Compound N#C/C(=C\c1cccnc1)c1c[nH]c2ccc(-c3ccc(F)cc3)cc12 [Example 39, (Z)-2-(5-(4-fluorophenyl)-1H-indol-3-yl)-3-(pyridin-3-yl)-acrylonitrile] has an IC50 of 10 to 20 µM.
With COC(=O)Nc1ccc2[nH]cc(/C(C#N)=C/c3cccnc3)c2c1 [Example 41, (Z)-methyl 3-(1-cyano-2-(pyridin-3-yl)vinyl)-1H-indol-5-ylcarbamate] the IC50 was < 5 µM.
In the case of N#C/C(=C\c1cccc([N+](=O)[O-])c1)c1c[nH]c2ccccc12 [Example 42, (Z)-2-(1H-indol-3-yl)-3-(3-nitro-phenyl)-acrylonitrile], the IC50 is reported as > 50 µM.
COc1ccc2[nH]cc(/C(C#N)=C/c3cccc([N+](=O)[O-])c3)c2c1 [Example 43, (Z)-2-(5-methoxy-1H-indol-3-yl)-3-(3-nitro-phenyl)-acrylonitrile] was tested, and the IC50 was > 50 µM.
For N#C/C(=C\c1cccc(N)c1)c1c[nH]c2ccccc12 [Example 44, (Z)-3-(3-amino-phenyl)-2-(1H-indol-3-yl)-acrylonitrile], the IC50 was > 50 µM.
In the case of COc1ccc2[nH]cc(/C(C#N)=C/c3cccc(N)c3)c2c1 [Example 45, (Z)-3-(3-amino-phenyl)-2-(5-methoxy-1H-indol-3-yl)-acrylonitrile], the IC50 is reported as > 50 µM.
In the case of COc1cncc(/C=C(\C#N)c2c[nH]c3ccc(OC)cc23)c1 [Example 46, (Z)-2-(5-methoxy-1H-indol-3-yl)-3-(5-methoxy-pyridin-3-yl)-acrylonitrile], the IC50 is reported as 10 to 20 µM.
Work on COc1ccc2[nH]cc(/C(C#N)=C/c3cnccc3Cl)c2c1 [Example 47, (Z)-3-(4-chloro-pyridin-3-yl)-2-(5-methoxy-1H-indol-3-yl)-acrylonitrile] yielded an IC50 of 5 to 10 µM.
With COc1ccc2[nH]cc(/C(C#N)=C/c3cccnc3F)c2c1 [Example 48, (Z)-3-(2-fluoropyridin-3-yl)-2-(5-methoxy-1H-indol-3-yl)-acrylonitrile] the IC50 was < 5 µM.
For COc1ccc2[nH]cc(/C(C#N)=C/c3ccc(Cl)nc3)c2c1 [Example 49, (Z)-3-(6-chloropyridin-3-yl)-2-(5-methoxy-1H-indol-3-yl)-acrylonitrile], the IC50 was 5 to 10 µM.
For COc1ccc2[nH]cc(/C(C#N)=C/c3ccsc3)c2c1 [Example 50, (Z)-2-(5-methoxy-1H-indol-3-yl)-3-thiophen-3-yl-acrylonitrile], the IC50 was > 50 µM.
With COc1ccc2[nH]cc(/C(C#N)=C/c3cnn(C)c3)c2c1 [Example 51] the IC50 was > 50 µM.
COc1ccc2[nH]cc(/C(C#N)=C/c3ccc(OC)nc3)c2c1 [Example 52, (Z)-3-(6-methoxy-pyridin-3-yl)-2-(5-methoxy-1H-indol-3-yl)-acrylonitrile] was tested, and the IC50 was 10 to 20 µM.
With COc1ccc2[nH]cc(/C(C#N)=C/c3ccc(C)nc3)c2c1 [Example 53, (Z)-2-(5-methoxy-1H-indol-3-yl)-3-(6-methylpyridin-3-yl)-acrylonitrile] the IC50 was < 5 µM.
Compound COc1ccc2[nH]cc(/C(C#N)=C/c3ccc(C#N)nc3)c2c1 [Example 54, (Z)-5-[2-cyano-2-(5-methoxy-1H-indol-3-yl)-vinyl]-picolinonitrile] has an IC50 of 5 to 10 µM.

Same assay, conditions: basal ATPase activity, absence of MTs; read-out: RabK6 basal IC50 X
N#C/C(=C\c1ccccn1)c1c[nH]c2ccccc12 [Example 3, (Z)-2-(1H-indol-3-yl)-3-pyridin-2-yl-acrylonitrile] was tested, and the IC50 was > 50 µM.
For COc1ccc2[nH]cc(/C(C#N)=C/c3cccnc3)c2c1 [Example 4, (Z)-2-(5-methoxy-1H-indol-3-yl)-3-pyridin-3-yl-acrylonitrile], the IC50 was < 5 µM.
N#C/C(=C\c1cccnc1)c1c[nH]c2ccc(OCc3ccccc3)cc12 [Example 5, (Z)-2-(5-benzyloxy-1H-indol-3-yl)-3-pyridin-3-yl-acrylonitrile] was tested, and the IC50 was > 50 µM.
For COc1ccc2[nH]cc(/C(C#N)=C/c3ccccn3)c2c1 [Example 6, (Z)-2-(5-methoxy-1H-indol-3-yl)-3-pyridin-2-yl-acrylonitrile], the IC50 was 10 to 20 µM.
Work on COc1ccc2[nH]cc(/C(C#N)=C/c3cc(OC)c(O)c(OC)c3)c2c1 [Example 7, (Z)-3-(4-hydroxy-3,5-dimethoxy-phenyl)-2-(5-methoxy-1H-indol-3-yl)-acrylonitrile] yielded an IC50 of 20 to 50 µM.
N#C/C(=C\c1ccccc1)c1c[nH]c2ccccc12 [Example 9, (Z)-2-(1H-indol-3-yl)-3-phenyl-acrylonitrile] showed an IC50 of 20 to 50 µM.
N#C/C(=C\c1ccc2c(c1)OCO2)c1c[nH]c2ccccc12 [Example 11, (Z)-3-benzo[1,3]dioxol-5-yl-2-(1H-indol-3-yl)-acrylonitrile] showed an IC50 of 10 to 20 µM.
Compound COc1cc(/C=C(\C#N)c2c[nH]c3ccc(OC)cc23)cc(OC)c1 [Example 14, (Z)-3-(3,5-dimethoxy-phenyl)-2-(5-methoxy-1H-indol-3-yl)-acrylonitrile] has an IC50 of 5 to 10 µM.
Compound N#C/C(=C\c1cncnc1)c1c[nH]c2ccccc12 [Example 15, (Z)-2-(1H-indol-3-yl)-3-pyrimidin-5-yl-acrylonitrile] has an IC50 of 10 to 20 µM.
For COc1ccc2[nH]cc(/C(C#N)=C/c3cncnc3)c2c1 [Example 16, (Z)-2-(5-methoxy-1H-indol-3-yl)-3-pyrimidin-5-yl-acrylonitrile], the IC50 was 5 to 10 µM.
In the case of COc1ccc2[nH]cc(C(C#N)Cc3cccnc3)c2c1 (stereo not shown) [Example 18, 2-(5-methoxy-1H-indol-3-yl)-3-pyridin-3-yl-propionitrile], the IC50 is reported as 20 to 50 µM.
CC(=O)Oc1ccc2[nH]cc(/C(C#N)=C/c3cccnc3)c2c1 [Example 20, 3-(1-cyano-2-(pyridin-3-yl)vinyl)-1H-indol-5-yl-acetate] was tested, and the IC50 was < 5 µM.
Compound COCC(=O)Oc1ccc2[nH]cc(/C(C#N)=C/c3cccnc3)c2c1 [Example 21, 3-(1-cyano-2-(pyridin-3-yl)vinyl)-1H-indol-5-yl-methoxyacetate] has an IC50 of 5 to 10 µM.
For CCOc1ccc2[nH]cc(/C(C#N)=C/c3cccnc3)c2c1 [Example 22, (Z)-2-(5-ethoxy-1H-indol-3-yl)-3-pyridin-3-yl-acrylonitrile], the IC50 was < 5 µM.
CC(C)Oc1ccc2[nH]cc(/C(C#N)=C/c3cccnc3)c2c1 [Example 23, (Z)-2-(5-isopropoxy-1H-indol-3-yl)-3-pyridin-3-yl-acrylonitrile] was tested, and the IC50 was < 5 µM.
For N#C/C(=C\c1cccnc1)c1c[nH]c2ccc(Cl)cc12 [Example 24, (Z)-2-(5-chloro-1H-indol-3-yl)-3-pyridin-3-yl-acrylonitrile], the IC50 was < 5 µM.
